Legend:
Conditions in all cases: 72 h
Caco-2 [1] = assay: relative viability EC50 (midpoint between 100% and the lowest measured viability); higher = less toxic
Vero E6 [2] = assay: as above
HepG2 [3] = assay: as above
U2OS [4] = assay: as above
Calu-3 [5] = assay: as above
Caco-2 [6] = assay: cell viability relative to DMSO; higher = less toxic
Vero E6 [7] = assay: as above
HepG2 [8] = assay: as above
U2OS [9] = assay: as above
Calu-3 [10] = assay: as above
Caco-2 [11] = assay: drug sensitivity score (DSS) for viability; higher = more toxic; extreme values may be limits of the assay
Vero E6 [12] = assay: as above
HepG2 [13] = assay: as above
U2OS [14] = assay: as above
Calu-3 [15] = assay: as above

Compound	relative viability EC50 (Caco-2 [1]) [µM]	relative viability EC50 (Vero E6 [2]) [µM]	relative viability EC50 (HepG2 [3]) [µM]	relative viability EC50 (U2OS [4]) [µM]	relative viability EC50 (Calu-3 [5]) [µM]	cell viability (Caco-2 [6]; 1 nM) [%]	cell viability (Caco-2 [6]; 10 nM) [%]	cell viability (Caco-2 [6]; 100 nM) [%]	cell viability (Caco-2 [6]; 1000 nM) [%]	cell viability (Caco-2 [6]; 10000 nM) [%]	cell viability (Vero E6 [7]; 1 nM) [%]	cell viability (Vero E6 [7]; 10 nM) [%]	cell viability (Vero E6 [7]; 100 nM) [%]	cell viability (Vero E6 [7]; 1000 nM) [%]	cell viability (Vero E6 [7]; 10000 nM) [%]	cell viability (HepG2 [8]; 1 nM) [%]	cell viability (HepG2 [8]; 10 nM) [%]	cell viability (HepG2 [8]; 100 nM) [%]	cell viability (HepG2 [8]; 1000 nM) [%]	cell viability (HepG2 [8]; 10000 nM) [%]	cell viability (U2OS [9]; 1 nM) [%]	cell viability (U2OS [9]; 10 nM) [%]	cell viability (U2OS [9]; 100 nM) [%]	cell viability (U2OS [9]; 1000 nM) [%]	cell viability (U2OS [9]; 10000 nM) [%]	cell viability (Calu-3 [10]; 1 nM) [%]	cell viability (Calu-3 [10]; 10 nM) [%]	cell viability (Calu-3 [10]; 100 nM) [%]	cell viability (Calu-3 [10]; 1000 nM) [%]	cell viability (Calu-3 [10]; 10000 nM) [%]	drug sensitivity score (Caco-2 [11])	drug sensitivity score (Vero E6 [12])	drug sensitivity score (HepG2 [13])	drug sensitivity score (U2OS [14])	drug sensitivity score (Calu-3 [15])
O=C(O)CCCc1ccc(N(CCCl)CCCl)cc1 [chlorambucil]	> 10	> 10	> 10	> 10	> 10	94.9	90.6	98.2	91.8	90.2	102	102	100	98.2	97.9	103	100	104	101	83.9	104	99.7	101	97.3	105	93	102	94.5	101	97.6	0	0	0.3	0	0
CC(C)(Oc1ccc(C2CC2(Cl)Cl)cc1)C(=O)O (stereo not given) [ciprofibrate]	> 10	> 10	> 10	> 10	> 10	101	93.5	103	86.7	102	94.1	94.4	93.4	97.2	108	96.3	106	99.2	96.1	100	93.2	98.3	99.6	94.7	91.7	104	98.1	96.5	93.7	95.9	0	0	0	0	0
CC(C)(C)CC(C)(C)c1ccc(O)c(Cc2ccc(Cl)cc2Cl)c1 [clofoctol]	> 10	> 10	> 10	> 10	> 10	94.6	102	99.7	99.8	93.8	107	101	102	99.8	102	109	98	113	96.2	98.5	99.4	103	102	103	96.9	91.2	96.5	92.4	90.9	98.5	0	0	0	0	0
Cc1nc(C)c(Cl)c(O)c1Cl [clopidol]	> 10	> 10	> 10	> 10	> 10	96.9	100	94.1	99.2	92.7	96.9	95.9	101	96.6	95.2	100	99.9	104	99.2	116	98.3	96.2	92.4	97.7	92.5	105	94.2	93.6	101	102	0	0	0	0	0
Cc1nc2c([nH]1)-c1ccccc1N(C(=O)c1ccc(NC(=O)c3ccccc3-c3ccccc3)cc1)CC2 [conivaptan]	> 10	> 10	> 10	> 10	> 10	97.5	94.3	91.2	102	91.7	97.9	100	97.3	89.4	100	97.9	97.1	101	93.6	101	101	103	96.3	104	97.6	102	106	105	94.1	96.6	0	0	0	0	0
CN1CCC(=C2c3ccccc3C=Cc3ccccc32)CC1 [cyproheptadine]	> 10	> 10	> 10	> 10	> 10	106	96.4	99.7	90.3	90.3	98.8	99.5	97.3	86.1	79.3	88.7	90.1	116	103	86.6	97.6	97.4	92.1	100	96.9	101	97.2	91.3	106	101	0	1.8	0	0	0
CC(C)(C)c1nc(-c2cccc(NS(=O)(=O)c3c(F)cccc3F)c2F)c(-c2ccnc(N)n2)s1 [dabrafenib]	> 10	> 10	0.49	> 10	> 10	103	97.1	98.2	77.8	101	96.5	104	103	79.8	102	96.4	90.9	78.3	65.9	30.4	102	93.2	107	95.3	102	88	93.8	106	99.3	124	0	0	9.8	0	0

Source: the supplement of paper PMC13380429
